Laboratory results reported in PMC6779870, “Structural analysis of fungal pathogenicity-related casein kinase α subunit, Cka1, in the human fungal pathogen Cryptococcus neoformans” (Scientific Reports, 2019).

Molecular target: T1, cnCka1 (Cryptococcus neoformans CK2α orthologue, Cka1) (Cryptococcus neoformans, UniProt J9VNH4)
T1 construct: gene CNAG_05694; full-length, Met1–Pro338 (His6-TRX fusion in SPR; tag removed for crystal)
Test: SPR (Biacore […]) and crystal structure at […] Å; also ADP-Glo kinase assay
Type: binding

T1 sequence (J9VNH4 entry or part of it): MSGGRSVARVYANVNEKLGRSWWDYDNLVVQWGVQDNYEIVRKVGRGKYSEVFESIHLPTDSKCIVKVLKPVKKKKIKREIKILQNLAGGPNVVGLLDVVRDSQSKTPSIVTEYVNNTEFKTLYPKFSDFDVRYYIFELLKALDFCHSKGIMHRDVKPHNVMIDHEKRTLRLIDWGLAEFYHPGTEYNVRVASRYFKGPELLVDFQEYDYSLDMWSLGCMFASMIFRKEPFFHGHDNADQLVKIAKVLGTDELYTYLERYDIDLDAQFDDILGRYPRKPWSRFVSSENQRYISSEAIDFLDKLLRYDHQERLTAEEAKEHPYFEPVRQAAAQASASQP

O=C(O)c1ccc2c(c1)nc(Nc1cccc(Cl)c1)c1ccncc12 [CX-4945, 5-(3-chlorophenylamino)benzo[c][2,6]naphthyridine-8-carboxylic acid]
Kd: 60.1 nM
